# Data from ChEMBL document CHEMBL1201862, “PubChem BioAssay data set” (2004).
#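 Cells were grown in 96-well plates and exposed to each compound for 48 hours at five concentrations; endpoints were interpolated linearly between bracketing concentrations, or set to the highest concentration if not reached. GI50 is the concentration that inhibits growth by half.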 Active and inactive are the calls of the source. Cut-off read from the data, not from the text of the source: active = GI50 up to about 1.1 µM and inactive = higher.
# Assays:
# Assay in all cases: DTP human tumour cell line panel, 48 h
# UACC-62 = test system: UACC-62
# SK-MEL-28 = test system: SK-MEL-28
# HT-29 = test system: HT-29
# KM12 = test system: KM12
# Malme-3M = test system: Malme-3M
# MDA-N = test system: MDA-N
# HCT-116 = test system: HCT-116
# MCF7 = test system: MCF7
# SF-268 = test system: SF-268
# BT-549 = test system: BT-549
# NCI/ADR-RES = test system: NCI/ADR-RES
# IGROV-1 = test system: IGROV-1
# MOLT-4 = test system: MOLT-4
# OVCAR-3 = test system: OVCAR-3
# HL-60 = test system: HL-60
# SK-OV-3 = test system: SK-OV-3
# SW-620 = test system: SW-620
# SF-295 = test system: SF-295
# CCRF-CEM = test system: CCRF-CEM
# SR = test system: SR
Compound,GI50 (UACC-62),GI50 (SK-MEL-28),GI50 (HT-29),GI50 (KM12),GI50 (Malme-3M),GI50 (MDA-N),GI50 (HCT-116),GI50 (MCF7),GI50 (SF-268),GI50 (BT-549),GI50 (NCI/ADR-RES),GI50 (IGROV-1),GI50 (MOLT-4),GI50 (OVCAR-3),GI50 (HL-60),GI50 (SK-OV-3),GI50 (SW-620),GI50 (SF-295),GI50 (CCRF-CEM),GI50 (SR)
CN(CCNC(=O)c1nn(C)c2c1Cc1ccccc1-2)CCNC(=O)c1nn(C)c2c1Cc1ccccc1-2,15.2 µM (inactive),16.1 µM (inactive),14 µM (inactive),19.1 µM (inactive),16.3 µM (inactive),14.5 µM (inactive),15.1 µM (inactive),11.1 µM (inactive),14.7 µM (inactive),16.2 µM (inactive),21.4 µM (inactive),8.55 µM (inactive),12.4 µM (inactive),11.4 µM (inactive),12.9 µM (inactive),18.2 µM (inactive),18.7 µM (inactive),16 µM (inactive),–,–
CN(C)c1cc[n+](-c2nc([N-]C(=O)C(F)(F)F)nc3c2ncn3C2CC(O)C(CO)O2)cc1 (configuration not stated),> 100 µM (inactive),> 100 µM (inactive),> 100 µM (inactive),> 100 µM (inactive),> 100 µM (inactive),> 100 µM (inactive),> 100 µM (inactive),> 100 µM (inactive),> 100 µM (inactive),> 100 µM (inactive),> 100 µM (inactive),> 100 µM (inactive),> 100 µM (inactive),> 100 µM (inactive),> 100 µM (inactive),> 100 µM (inactive),> 100 µM (inactive),> 100 µM (inactive),> 100 µM (inactive),–
O=c1c2ccccc2sc2ccccc12,> 100 µM (inactive),> 100 µM (inactive),> 100 µM (inactive),> 100 µM (inactive),> 100 µM (inactive),> 100 µM (inactive),> 100 µM (inactive),> 100 µM (inactive),> 100 µM (inactive),> 100 µM (inactive),> 100 µM (inactive),> 100 µM (inactive),> 100 µM (inactive),> 100 µM (inactive),> 100 µM (inactive),> 100 µM (inactive),> 100 µM (inactive),> 100 µM (inactive),> 100 µM (inactive),–
CN(C)S(=O)(=O)/N=C/c1cccc(/C=N/S(=O)(=O)N(C)C)c1,> 100 µM (inactive),> 100 µM (inactive),–,> 100 µM (inactive),–,31 µM (inactive),33.3 µM (inactive),46.7 µM (inactive),61.5 µM (inactive),38.1 µM (inactive),81.7 µM (inactive),–,> 100 µM (inactive),> 100 µM (inactive),> 100 µM (inactive),> 100 µM (inactive),64 µM (inactive),0.728 µM (active),74.8 µM (inactive),–
O=c1[nH]c(Cc2ccccc2)nc2c1sc1nc3ccccc3n12,> 100 µM (inactive),> 100 µM (inactive),> 100 µM (inactive),> 100 µM (inactive),–,> 100 µM (inactive),> 100 µM (inactive),> 100 µM (inactive),> 100 µM (inactive),> 100 µM (inactive),> 100 µM (inactive),> 100 µM (inactive),> 100 µM (inactive),> 100 µM (inactive),> 100 µM (inactive),> 100 µM (inactive),> 100 µM (inactive),> 100 µM (inactive),> 100 µM (inactive),> 100 µM (inactive)
Cc1cccc(-c2cc(O)c3c(C)ccnc3n2)c1,0.461 µM (active),> 61.1 µM (inactive),0.339 µM (active),0.209 µM (active),–,0.0474 µM (active),0.355 µM (active),0.319 µM (active),10 µM (inactive),> 100 µM (inactive),0.255 µM (active),0.681 µM (active),0.71 µM (active),0.256 µM (active),0.166 µM (active),0.53 µM (active),0.169 µM (active),0.346 µM (active),0.583 µM (active),–
COc1ccc(N)c(C(=O)CCNC(C)=O)c1 [KINURENAMINE],> 100 µM (inactive),–,> 100 µM (inactive),> 100 µM (inactive),–,> 100 µM (inactive),> 100 µM (inactive),> 100 µM (inactive),> 100 µM (inactive),> 100 µM (inactive),> 100 µM (inactive),> 100 µM (inactive),> 100 µM (inactive),> 100 µM (inactive),> 100 µM (inactive),> 100 µM (inactive),> 100 µM (inactive),> 100 µM (inactive),> 100 µM (inactive),> 100 µM (inactive)
CC(C)CCCC(C)[C@H]1CCC2[C@@H]3CCC4Cc5nc6c(nc5C[C@]4(C)C3CC[C@@]21C)CC1CC[C@@H]2C(C[C@@H](O)[C@@]3(C)C2C[C@@H]2OC4(CCC(C)CO4)C(C)[C@@H]23)[C@@]1(C)C6 (some centres not stated),> 100 µM (inactive),> 100 µM (inactive),> 100 µM (inactive),> 100 µM (inactive),–,> 100 µM (inactive),> 100 µM (inactive),> 100 µM (inactive),> 100 µM (inactive),> 100 µM (inactive),> 100 µM (inactive),> 100 µM (inactive),> 100 µM (inactive),> 100 µM (inactive),> 100 µM (inactive),94.4 µM (inactive),> 100 µM (inactive),> 100 µM (inactive),> 100 µM (inactive),> 100 µM (inactive)
Cc1c([N+](=O)[O-])oc2ccc3ccccc3c12,56.1 µM (inactive),> 100 µM (inactive),14.6 µM (inactive),29.9 µM (inactive),–,26.9 µM (inactive),4.26 µM (inactive),10.3 µM (inactive),35.7 µM (inactive),> 100 µM (inactive),33.4 µM (inactive),12.1 µM (inactive),2.58 µM (inactive),> 100 µM (inactive),3.18 µM (inactive),20.8 µM (inactive),20.2 µM (inactive),58.1 µM (inactive),6.32 µM (inactive),2.9 µM (inactive)
O=C1C2CC=CCC2C(=O)N1n1c(Cc2ccccc2)n[nH]c1=O (configuration not stated),> 100 µM (inactive),–,> 100 µM (inactive),> 100 µM (inactive),> 100 µM (inactive),> 100 µM (inactive),> 100 µM (inactive),> 100 µM (inactive),> 100 µM (inactive),> 100 µM (inactive),> 100 µM (inactive),> 100 µM (inactive),> 100 µM (inactive),> 100 µM (inactive),–,> 100 µM (inactive),> 100 µM (inactive),> 100 µM (inactive),> 100 µM (inactive),> 100 µM (inactive)
CCOC(=O)C1C(c2ccc(OC)cc2)c2c(nn(-c3ccccc3)c2O)CC1(O)OCC (configuration not stated),7.67 µM (inactive),> 100 µM (inactive),27.4 µM (inactive),3.4 µM (inactive),75.5 µM (inactive),8.63 µM (inactive),23.7 µM (inactive),30.1 µM (inactive),> 100 µM (inactive),> 100 µM (inactive),> 100 µM (inactive),> 100 µM (inactive),2.45 µM (inactive),> 100 µM (inactive),0.47 µM (active),–,27.5 µM (inactive),1.92 µM (inactive),–,2.17 µM (inactive)
Cc1ncc2c(=O)c3c(oc2n1)c1ccccc1n3Cc1ccccc1,27 µM (inactive),> 100 µM (inactive),> 100 µM (inactive),> 100 µM (inactive),> 100 µM (inactive),> 100 µM (inactive),> 100 µM (inactive),> 100 µM (inactive),> 100 µM (inactive),> 100 µM (inactive),> 100 µM (inactive),> 100 µM (inactive),> 100 µM (inactive),> 100 µM (inactive),> 100 µM (inactive),–,> 100 µM (inactive),> 100 µM (inactive),> 100 µM (inactive),> 100 µM (inactive)
Nc1ncnc2oc(-c3cccs3)nc12,66.1 µM (inactive),> 100 µM (inactive),83.4 µM (inactive),> 100 µM (inactive),–,> 100 µM (inactive),> 100 µM (inactive),> 100 µM (inactive),> 100 µM (inactive),> 100 µM (inactive),> 100 µM (inactive),> 100 µM (inactive),–,> 100 µM (inactive),> 100 µM (inactive),–,> 100 µM (inactive),> 100 µM (inactive),> 100 µM (inactive),> 100 µM (inactive)
CC(=O)OCC1OC(c2nc3ccccc3s2)=CC(OC(C)=O)C1OC(C)=O (configuration not stated),–,> 100 µM (inactive),> 100 µM (inactive),> 100 µM (inactive),> 100 µM (inactive),> 100 µM (inactive),57.5 µM (inactive),> 100 µM (inactive),43.6 µM (inactive),> 100 µM (inactive),> 100 µM (inactive),> 100 µM (inactive),> 10 µM (inactive),> 100 µM (inactive),22.3 µM (inactive),–,> 100 µM (inactive),> 100 µM (inactive),> 100 µM (inactive),41.1 µM (inactive)
CC(=O)/C(=C/N1C(=O)CC(=O)NC1=S)C(=O)Nc1ccccc1C,24.3 µM (inactive),58.6 µM (inactive),23.5 µM (inactive),37.5 µM (inactive),–,49.2 µM (inactive),31.6 µM (inactive),60.4 µM (inactive),35.1 µM (inactive),> 100 µM (inactive),39.7 µM (inactive),91 µM (inactive),28 µM (inactive),36.1 µM (inactive),49 µM (inactive),> 100 µM (inactive),32.8 µM (inactive),84.3 µM (inactive),–,–
